Patent US7186886B2, “Aliphatic acyl transferase genes” (International Flower Developments Proprietary Limited, priority 2000, dated 2007)

B1: SsMaT1: Salvia splendens malonyl transferase gene product (SEQ ID NO: 23), expressed in E. coli from pQE-30Xa-SsMaT1 (protein, listed as Salvia splendens)
chain: TTTTILETCHIPPPPAANDLSIPLSFFDIKWLHYHPVRRLLFYHHPSSKSQFLHTIVPHLKQSLSLALTHYLPVAGNLLYPSNTEKFPQLRYAAGDSVPVTIAESNSDFESLTGNHTRDADQFYDLLPPIPPIEEESDWKLINIFAVQITLFPGEGICIGFSNHHCLGDASSIVGFISAWGEINGIGGYEGFLSNHSDSLSLPIFDRSFINDPNKIDAIFWKVLSNMPLKTASFPLPTNSVSSTFLLRSSDIEKLKTATKSPASSFVAAAAFVWSCMVKSGDKSDENAPELFIMPADASGSVDPPMPENYFGNCIVSSVAQVERGKLAAEDGFAVAAEAIGGEIEGKLKNSDEILSGAENWMSDMFKCFGMSVLGVSGSPKFDLLKADFGWGKASKLEVLSIDGENHSMSLCSSSDFNGGLEVGLSLPSESMAAFEEVFSASMMAASGPASRSPALVEPL
modifications: possible His tag from pQE-30Xa

What was measured:
[1] = Colour of anthocyanin solutions in McIlvaine buffer evaluated with Colour charts (Royal Horticulture Society); type: physicochemical; conditions: for Number in Colour chart at pH 5.3: McIlvaine buffer pH 5.3; for Number in Colour chart at pH 5.3 / Number in Colour chart at pH 5.6 / Number in Colour chart at pH 6.0: greater number = bluer, A = bluest within a number; for Number in Colour chart at pH 5.6: McIlvaine buffer pH 5.6; for Number in Colour chart at pH 6.0: McIlvaine buffer pH 6.0
Experimental: Delphinidin 3,5-diglucoside, awobanin (delphinidin 3-(coumaroyl) glucoside-5-glucoside), malonyl-awobanin (delphinidin 3-(coumaroyl)glucoside-5-(malonyl) glucoside) were dissolved in McIlvaine buffer (pH 5.3, pH 5.6, pH 6.0) in concentrations of 0.1 mM, 0.3 mM, 0.5 mM, respectively, and colours of the solutions were evaluated using Colour charts (Royal Horticulture Society). Delphinidin 3,5-diglucoside can be obtained from its 3,5-diacetylglucoside form by removing the acetyl portion in alkaline hydrolysis reaction (Tetrahedron, 48, 4313–4326, 1992). Awobanin can be obtained from malonyl-awobanin by removing its 5-malonyl portion (Tetrahedron Lett. 24, 4863–4866, 1983). Malonyl-awobanin was obtained by extraction from plants using the method as set forth in Tetrahedron Lett. 24, 4863–4866, 1983. The greater the number in the Colour chart, the bluer the colour is. When the number is the same, symbol A represents the bluest colour.

[2] = Malonyl transferase activity of E. coli-expressed gene product, shisonin as substrate, HPLC detection; type: biochemical
Experimental: Measurement of activity of malonyl transferase was conducted using reaction solution 100 μl (potassium phosphate of final concentration of 20 mM, pH 7.0, containing shisonin 10 μg, malonyl CoA 10 μg, and an enzyme sample to be measured, dissolved in 0.01% trifluoro acetic acid). After reaction was carried out at 30° C. for 20 minutes, the reaction was terminated by adding 200 μl of 0.05% TFA aqueous solution cooled on ice. Quantification of shisonin and malonyl-shisonin was conducted by reverse phase high performance liquid chromatography (DYNAMAX HPLC system) using a Shodex Asahipak ODP-50 4E column, and using a linear concentration gradient with 0.5% TFA solution as the solution and 0.5% TFA, 50% acetonitrile aqueous solution as the solution, such that concentration of the B solution was 45%, 45%, 55%, 100%, 100%, 45%, and 45%, at time 0, 3, 17, 18, 23, 24, and 30 minutes, respectively, after the start of separation, at a flow rate of 0.7 ml/min, using 50 μl of reaction solution, monitoring absorption at 520 nm. […]
Enzyme activity was measured using a supernatant (soluble fraction) obtained after centrifuging. […]
As in Example 7, using a plasmid constructed such that the PfMaT1 gene obtained in Example 9 can be expressed as a fusion protein fused with LacZ protein, the PfMaT1 gene was expressed in Escherichia coli as in Example 7, and enzyme activity was measured. […]

Molecule | Number in Colour chart at pH 5.3 ([1]; 0.1 mM) | Number in Colour chart at pH 5.6 ([1]; 0.1 mM) | Number in Colour chart at pH 6.0 ([1]; 0.1 mM) | Number in Colour chart at pH 5.3 ([1]; 0.3 mM) | Number in Colour chart at pH 6.0 ([1]; 0.3 mM) | Number in Colour chart at pH 5.6 ([1]; 0.3 mM) | Number in Colour chart at pH 5.3 ([1]; 0.5 mM) | Number in Colour chart at pH 5.6 ([1]; 0.5 mM) | Number in Colour chart at pH 6.0 ([1]; 0.5 mM) | Colour of solution compared among the three anthocyanins ([1]; all concentrations and pH, versus delphinidin 3,5-diglucoside and awobanin) | Acyl transfer to shisonin with other acyl CoA substrates (new HPLC peak) ([2]; acetyl CoA, methylmalonyl CoA, or succinyl CoA in place of malonyl CoA) | Malonyl transferase activity (formation of malonyl-shisonin) ([2]; shisonin and malonyl CoA, 30° C., 20 minutes, pH 7.0, soluble extract of expressing Escherichia coli)
O=C(/C=C/c1ccc(O)cc1)OC[C@H]1O[C@@H](Oc2cc3c(O[C@@H]4O[C@H](CO)[C@@H](O)[C@H](O)[C@H]4O)cc(O)cc3[o+]c2-c2cc(O)c(O)c(O)c2)[C@H](O)[C@@H](O)[C@@H]1O [Awobanin, delphinidin 3-(coumaroyl) glucoside-5-glucoside] | 85C | 85A | 91B | 86D | 91A | – | – | – | – | – | – | –
OC[C@H]1O[C@@H](Oc2cc3c(O[C@@H]4O[C@H](CO)[C@@H](O)[C@H](O)[C@H]4O)cc(O)cc3[o+]c2-c2cc(O)c(O)c(O)c2)[C@H](O)[C@@H](O)[C@@H]1O [Delphinidin 3,5-diglucoside] | 84C | 84C | – | 85A | 88C | 86D | 86D | 90B | 88B/C | – | – | –
O=C(O)CC(=O)OC[C@H]1O[C@@H](Oc2cc(O)cc3[o+]c(-c4cc(O)c(O)c(O)c4)c(O[C@@H]4O[C@H](COC(=O)/C=C/c5ccc(O)cc5)[C@@H](O)[C@H](O)[C@H]4O)cc23)[C@H](O)[C@@H](O)[C@@H]1O [Malonyl-awobanin, delphinidin 3-(coumaroyl)glucoside-5-(malonyl) glucoside] | 85C | 91B | 91B | 92A | 96C | 93B | 93B | – | 96A | the bluest | – | –
B1 | – | – | – | – | – | – | – | – | – | – | a new peak in addition to shisonin was observed | malonyl-shisonin was produced
